Reference: ChEMBL document CHEMBL3407419, “Multiple binding modes of isothiocyanates that inhibit macrophage migration inhibitory factor” (Eur J Med Chem, 2015)

Assays:
[1] = target: T1, Macrophage migration inhibitory factor (Homo sapiens, UniProt P14174); assay: Inhibition of macrophage migration inhibitory factor tautomerase activity in human Jurkat T cells using L-dopachrome methyl ester as substrate incubated for 30 mins prior to substrate addition measured for 2 mins by spectrophotometric analysis; assay type: cell-based
T1 sequence (P14174 whole entry): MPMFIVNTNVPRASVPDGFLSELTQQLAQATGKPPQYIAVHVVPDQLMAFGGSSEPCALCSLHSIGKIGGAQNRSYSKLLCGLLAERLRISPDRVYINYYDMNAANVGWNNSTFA

[2] = target: T1, Macrophage migration inhibitory factor; assay: (§1) Inhibition of human recombinant macrophage migration inhibitory factor tautomerase activity expressed in Escherichia coli DH5alpha using L-dopachrome methyl ester as substrate incubated for 5 mins prior to substrate addition measured for 2 mins by spectrophotometric analysis
[3] = target: T1, Macrophage migration inhibitory factor; assay: Inhibition of macrophage migration inhibitory factor tautomerase activity in human Jurkat T cells using L-dopachrome methyl ester as substrate incubated for 30 mins prior to substrate addition measured 24 months post determination of initial value by spectrophotometric analysis; assay type: cell-based
[4] = target: T1, Macrophage migration inhibitory factor; assay: as §1, with “24 months post determination of initial value” for “for 2 mins”

| SMILES | IC50 [1] [µM] | IC50 [2] [µM] | IC50 [3] [µM] | IC50 [4] [µM] |
| --- | --- | --- | --- | --- |
| C[C@@H](N=C=S)c1ccccc1 | 1.1 |  |  |  |
| Oc1ccc(CCN=C=S)cc1 | 1.2 | 3.6 |  |  |
| Oc1cccc(CCN=C=S)c1 | 7.8 | 62 |  |  |
| Oc1ccc(CCN=C=S)cc1O | 4 | 29 |  |  |
| FC(F)(F)c1ccc(CCN=C=S)cc1 | 7.1 | 40 |  |  |
| FC(F)(F)c1cccc(CCN=C=S)c1 | 10.4 |  |  |  |
| S=C=NCCc1ccc(Cl)cc1 | 1.6 | 1.1 |  |  |
| CC(CN=C=S)c1ccc(O)cc1 (stereo unspecified) | 4.8 | 28 |  |  |
| Oc1ccc(C(N=C=S)c2ccc(O)cc2)cc1 | > 100 |  |  |  |
| Fc1ccc(CN=C=S)cc1 | 0.54 |  | 9.6 | 31 |
| Fc1cccc(CN=C=S)c1 | 1.5 |  | 11 | 54 |
| FC(F)(F)c1cccc(CN=C=S)c1 | 5.9 |  |  |  |
| NS(=O)(=O)c1ccc(CN=C=S)cc1 | 0.5 | 0.75 |  |  |
| S=C=NCc1ccc2c(c1)OCO2 | 5 | 2.9 |  |  |
| CCC(N=C=S)c1ccccc1 (stereo unspecified) | 21 |  |  |  |
| CCC(N=C=S)c1ccc(O)cc1 (stereo unspecified) | > 100 |  |  |  |
| CCC(N=C=S)c1ccc(OC)cc1 (stereo unspecified) | 1.2 |  |  |  |
| S=C=NC(c1ccccc1)c1ccccc1 | > 100 |  |  |  |
| COc1ccccc1OCCN=C=S | 1.8 |  |  |  |
| S=C=NCCCc1ccccc1 | 1.4 |  |  |  |
| OCCCCCCN=C=S | 5.1 |  |  |  |
| COc1ccc(CN=C=S)cc1 | 3.9 | 0.7 |  |  |
| CC(N=C=S)c1ccccc1 (stereo unspecified) [1-PHENYLETHYL ISOTHIOCYANATE] | 2.8 | 1 |  |  |
| C=CCN=C=S [ALLYL ISOTHIOCYANATE] | 0.25 | 1.1 |  |  |
| N#CSCc1ccccc1 [BENZYL THIOCYANATE] | > 100 |  |  |  |
| O=C=NCCc1ccccc1 [PHENETHYL ISOCYANATE] | > 100 |  |  |  |
| S=C=NCCCCc1ccccc1 [PHENYLBUTYL ISOTHIOCYANATE] | 1.9 |  |  |  |
| S=C=NCCCCCCc1ccccc1 [PHENYLHEXYL ISOTHIOCYANATE] | 4.2 |  |  |  |
| S=C=Nc1ccccc1 [PHENYLISOTHIOCYANATE] | 11 |  |  |  |
| C[S+]([O-])CCCCN=C=S (stereo unspecified) [SULFORAPHANE] | 2.2 | 11 |  |  |
